{"source": "patent US20160120877A1", "about": "“PHARMACEUTICAL COMPOSITIONS FOR SUSTAINED DELIVERY OF BENZODIAZEPINE ANTAGONISTS” (priority 2010, published 2016)", "assay_type_in_all_cases": "physicochemical", "key": {"[1]": {"assay": "Dialysis diffusion: effect of dialysate volume", "settings": "0.25 g of 3% solution in NMP", "description": "Dissolution apparatus: Vankel VK 7000 (Agilent Technologies Australia)\nDialysis bags: dialysis tubing cellulose membrane from Sigma-Aldrich Australia—average flat width 25 mm, average diameter 16 mm (when full), retains >90% of cytocrome C (M.W. 12.400) in solution over a 10 hrs period.\n(§1) Dialysis tubing cellulose membrane was cut into approximately 8 cm lengths, washed with hot water for 3 hours. Tubing was then treated with 0.3% (w/v) solution of sodium sulfide at 80° C. for 1 minute, washed with hot water (60° C.) for 2 minutes and followed by acidification with 0.2% sulfuric acid. Tubing was then rinsed with hot water to remove the acid. Test formulations were added, the tubing closed with nylon closures and placed in the dialysate. At various time periods, the dialysate was sampled and the flumazenil released measured by HPLC assay.\nChromatography column: C18-250 mm×4.6 mm×5 μm (Sigma Aldrich Australia)\nMobile phase: H2O pH 2:methanol:tetrahydrofuran (80:13:7)\nInjection volume: 10 μl and 100 μl\nExperiments were conducted to check the influence of the volume of the dialysis medium (dialysate) on diffusion rate.\nA=800 ml of phosphate buffer pH 4.0\nB=600 ml of phosphate buffer pH 4.0\n0.25 g of 3% flumazenil solution in N-Methyl-2-Pyrrolidinone (NMP)"}, "[2]": {"assay": "Dialysis diffusion: effect of sample concentration", "description": "as §1\nExperiments were conducted to test the effect of sample concentration on diffusion rate.\n(§2) As described in 1.1 with 600 ml of phosphate buffer pH 4.0 as dialysate.\n(§3) A=0.25 g of a 1.5% flumazenil solution in NMP\nB=0.25 g of a 3.0% flumazenil solution in NMP\nC=0.25 g of a 4.5% flumazenil solution in NMP"}, "[3]": {"assay": "Dialysis diffusion: effect of concentration and sample size (same quantity of flumazenil)", "description": "as §1\nExperiments were conducted to test the effect of different concentrations and different sample sizes (but same quantity of flumazenil) on diffusion rate.\nas §2, §3\nB=0.125 g of a 3% flumazenil solution in NMP\nC=0.083 g of a 4.5% flumazenil solution in NMP"}, "[4]": {"settings": "sample A1 (0.25 g of 1.5% solution in NMP), 1 h"}, "[5]": {"settings": "sample A1 (0.25 g of 1.5% solution in NMP), 2 h"}, "[6]": {"settings": "sample A1 (0.25 g of 1.5% solution in NMP), 3 h"}, "[7]": {"settings": "sample A2 (0.25 g of 1.5% solution in NMP), 1 h"}, "[8]": {"settings": "sample A2 (0.25 g of 1.5% solution in NMP), 2 h"}, "[9]": {"settings": "sample A2 (0.25 g of 1.5% solution in NMP), 3 h"}, "[10]": {"settings": "sample A (0.25 g of 1.5% solution in NMP)"}}, "data": [{"smiles": "CCOC(=O)c1ncn2c1CN(C)C(=O)c1cc(F)ccc1-2", "note": "[flumazenil, ethyl 8-fluoro-5,6-dihydro-5-methyl-6-oxo-4H-imidazo[1,5-a](1,4)benzodiazepine-3-carboxylate]", "values": [{"measurement": "% flumazenil released", "setting": "[1]; A1 (800 ml dialysate pH 4.0), 1 h", "result": 57.6, "unit": "%"}, {"measurement": "% flumazenil released", "setting": "[1]; A1 (800 ml dialysate pH 4.0), 2 h", "result": 73.1, "unit": "%"}, {"measurement": "% flumazenil released", "setting": "[1]; A1 (800 ml dialysate pH 4.0), 4 h", "result": 94.5, "unit": "%"}, {"measurement": "% flumazenil released", "setting": "[1]; A1 (800 ml dialysate pH 4.0), 6 h", "result": 100.9, "unit": "%"}, {"measurement": "% flumazenil released", "setting": "[1]; A1 (800 ml dialysate pH 4.0), 24 h", "result": 100.7, "unit": "%"}, {"measurement": "% flumazenil released", "setting": "[1]; A2 (800 ml dialysate pH 4.0), 1 h", "result": 50.3, "unit": "%"}, {"measurement": "% flumazenil released", "setting": "[1]; A2 (800 ml dialysate pH 4.0), 2 h", "result": 66.0, "unit": "%"}, {"measurement": "% flumazenil released", "setting": "[1]; A2 (800 ml dialysate pH 4.0), 4 h", "result": 88.6, "unit": "%"}, {"measurement": "% flumazenil released", "setting": "[1]; A2 (800 ml dialysate pH 4.0), 6 h", "result": 98.9, "unit": "%"}, {"measurement": "% flumazenil released", "setting": "[1]; A2 (800 ml dialysate pH 4.0), 24 h", "result": 101.7, "unit": "%"}, {"measurement": "% flumazenil released", "setting": "[1]; B1 (600 ml dialysate pH 4.0), 1 h", "result": 52.2, "unit": "%"}, {"measurement": "% flumazenil released", "setting": "[1]; B1 (600 ml dialysate pH 4.0), 2 h", "result": 69.2, "unit": "%"}, {"measurement": "% flumazenil released", "setting": "[1]; B1 (600 ml dialysate pH 4.0), 4 h", "result": 92.7, "unit": "%"}, {"measurement": "% flumazenil released", "setting": "[1]; B1 (600 ml dialysate pH 4.0), 6 h", "result": 99.2, "unit": "%"}, {"measurement": "% flumazenil released", "setting": "[1]; B1 (600 ml dialysate pH 4.0), 24 h", "result": 100.64, "unit": "%"}, {"measurement": "% flumazenil released", "setting": "[1]; B2 (600 ml dialysate pH 4.0), 1 h", "result": 50.5, "unit": "%"}, {"measurement": "% flumazenil released", "setting": "[1]; B2 (600 ml dialysate pH 4.0), 2 h", "result": 66.5, "unit": "%"}, {"measurement": "% flumazenil released", "setting": "[1]; B2 (600 ml dialysate pH 4.0), 4 h", "result": 89.2, "unit": "%"}, {"measurement": "% flumazenil released", "setting": "[1]; B2 (600 ml dialysate pH 4.0), 6 h", "result": 98.0, "unit": "%"}, {"measurement": "% flumazenil released", "setting": "[1]; B2 (600 ml dialysate pH 4.0), 24 h", "result": 99.2, "unit": "%"}, {"measurement": "time to reach equilibrium", "setting": "[1]; dialysate A (800 ml)", "result": "around 6 hours"}, {"measurement": "time to reach equilibrium", "setting": "[1]; dialysate B (600 ml)", "result": "around 6 hours"}, {"measurement": "% flumazenil released", "setting": "[2]; [4]", "result": 92.9, "unit": "%"}, {"measurement": "% flumazenil released", "setting": "[2]; [5]", "result": 100.5, "unit": "%"}, {"measurement": "% flumazenil released", "setting": "[2]; [6]", "result": 101.4, "unit": "%"}, {"measurement": "% flumazenil released", "setting": "[2]; [7]", "result": 89.8, "unit": "%"}, {"measurement": "% flumazenil released", "setting": "[2]; [8]", "result": 100, "unit": "%"}, {"measurement": "% flumazenil released", "setting": "[2]; [9]", "result": 101.4, "unit": "%"}, {"measurement": "precipitation during the dialysis", "setting": "[2]; [10]", "result": "no precipitation was observed"}, {"measurement": "% flumazenil released", "setting": "[2]; sample B1 (0.25 g of 3.0% solution in NMP), 1 h", "result": 62.1, "unit": "%"}, {"measurement": "% flumazenil released", "setting": "[2]; sample B1 (0.25 g of 3.0% solution in NMP), 2 h", "result": 74.8, "unit": "%"}, {"measurement": "% flumazenil released", "setting": "[2]; sample B2 (0.25 g of 3.0% solution in NMP), 1 h", "result": 62.0, "unit": "%"}, {"measurement": "% flumazenil released", "setting": "[2]; sample B2 (0.25 g of 3.0% solution in NMP), 2 h", "result": 76.3, "unit": "%"}, {"measurement": "precipitation during the dialysis", "setting": "[2]; sample B (0.25 g of 3.0% solution in NMP)", "result": "Precipitation was observed"}, {"measurement": "% flumazenil released", "setting": "[2]; sample C1 (0.25 g of 4.5% solution in NMP), 1 h", "result": 27.5, "unit": "%"}, {"measurement": "% flumazenil released", "setting": "[2]; sample C1 (0.25 g of 4.5% solution in NMP), 2 h", "result": 40.4, "unit": "%"}, {"measurement": "% flumazenil released", "setting": "[2]; sample C2 (0.25 g of 4.5% solution in NMP), 1 h", "result": 29.1, "unit": "%"}, {"measurement": "% flumazenil released", "setting": "[2]; sample C2 (0.25 g of 4.5% solution in NMP), 2 h", "result": 43.0, "unit": "%"}, {"measurement": "precipitation during the dialysis", "setting": "[2]; sample C (0.25 g of 4.5% solution in NMP)", "result": "Precipitation was observed"}, {"measurement": "% flumazenil released", "setting": "[3]; [4]", "result": 91.0, "unit": "%"}, {"measurement": "% flumazenil released", "setting": "[3]; [5]", "result": 100.3, "unit": "%"}, {"measurement": "% flumazenil released", "setting": "[3]; [6]", "result": 101.0, "unit": "%"}, {"measurement": "% flumazenil released", "setting": "[3]; sample A1 (0.25 g of 1.5% solution in NMP), 4 h", "result": 100.9, "unit": "%"}, {"measurement": "% flumazenil released", "setting": "[3]; sample A1 (0.25 g of 1.5% solution in NMP), 5 h", "result": 101.0, "unit": "%"}, {"measurement": "% flumazenil released", "setting": "[3]; sample A1 (0.25 g of 1.5% solution in NMP), 6 h", "result": 100.8, "unit": "%"}, {"measurement": "% flumazenil released", "setting": "[3]; [7]", "result": 93.2, "unit": "%"}, {"measurement": "% flumazenil released", "setting": "[3]; [8]", "result": 100.7, "unit": "%"}, {"measurement": "% flumazenil released", "setting": "[3]; [9]", "result": 100.9, "unit": "%"}, {"measurement": "% flumazenil released", "setting": "[3]; sample A2 (0.25 g of 1.5% solution in NMP), 4 h", "result": 101.0, "unit": "%"}, {"measurement": "% flumazenil released", "setting": "[3]; sample A2 (0.25 g of 1.5% solution in NMP), 5 h", "result": 100.6, "unit": "%"}, {"measurement": "% flumazenil released", "setting": "[3]; sample A2 (0.25 g of 1.5% solution in NMP), 6 h", "result": 100.7, "unit": "%"}, {"measurement": "precipitation in bags during the dialysis", "setting": "[3]; [10]", "result": "no precipitation observed"}, {"measurement": "% flumazenil released", "setting": "[3]; sample B1 (0.125 g of 3% solution in NMP), 1 h", "result": 92.3, "unit": "%"}, {"measurement": "% flumazenil released", "setting": "[3]; sample B1 (0.125 g of 3% solution in NMP), 2 h", "result": 99.0, "unit": "%"}]}]}
